Laboratory results published in the supplement of paper PMC10307832.

Experiments:
Experiment in all cases: relative viability (nuclei count vs DMSO), 5 days (fraction); higher = more cells survive
Omipalisib + Bortezomib = compound: COc1ncc(-c2ccc3nccc(-c4ccnnc4)c3c2)cc1NS(=O)(=O)c1ccc(F)cc1F [Omipalisib] + CC(C)C[C@H](NC(=O)[C@H](Cc1ccccc1)NC(=O)c1cnccn1)B(O)O [Bortezomib] (partner 0.002 µM)
How it was run: (§1)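 Medians of duplicate plates are given as relative viability. That measure is the nuclei count in treated wells divided by the count in vehicle wells. Counts were taken on 4× images of lung cancer cell lines in 1536-well plates, 5 days after pin-tool dosing the day after seeding with one drug alone or a fixed anchor-drug dose plus five library-drug doses (not always all listed) in √10 steps.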

Omipalisib + Foretinib = compound: COc1ncc(-c2ccc3nccc(-c4ccnnc4)c3c2)cc1NS(=O)(=O)c1ccc(F)cc1F [Omipalisib] + COc1cc2c(Oc3ccc(NC(=O)C4(C(=O)Nc5ccc(F)cc5)CC4)cc3F)ccnc2cc1OCCCN1CCOCC1 [Foretinib] (partner 0.25 µM)
How it was run: as §1

Omipalisib + Lapatinib = compound: COc1ncc(-c2ccc3nccc(-c4ccnnc4)c3c2)cc1NS(=O)(=O)c1ccc(F)cc1F [Omipalisib] + CS(=O)(=O)CCNCc1ccc(-c2ccc3ncnc(Nc4ccc(OCc5cccc(F)c5)c(Cl)c4)c3c2)o1 [Lapatinib] (partner 2 µM)
How it was run: as §1

Omipalisib + Dasatinib = compound: COc1ncc(-c2ccc3nccc(-c4ccnnc4)c3c2)cc1NS(=O)(=O)c1ccc(F)cc1F [Omipalisib] + Cc1nc(Nc2ncc(C(=O)Nc3c(C)cccc3Cl)s2)cc(N2CCN(CCO)CC2)n1 [Dasatinib] (partner 0.075 µM)
How it was run: as §1

Omipalisib + Pictilisib = compound: COc1ncc(-c2ccc3nccc(-c4ccnnc4)c3c2)cc1NS(=O)(=O)c1ccc(F)cc1F [Omipalisib] + CS(=O)(=O)N1CCN(Cc2cc3nc(-c4cccc5[nH]ncc45)nc(N4CCOCC4)c3s2)CC1 [Pictilisib] (partner 1 µM)
How it was run: as §1

Omipalisib + OSI-027 = compound: COc1ncc(-c2ccc3nccc(-c4ccnnc4)c3c2)cc1NS(=O)(=O)c1ccc(F)cc1F [Omipalisib] + COc1cccc2cc(-c3nc([C@H]4CC[C@H](C(=O)O)CC4)n4ncnc(N)c34)[nH]c12 [OSI-027] (partner 0.5 µM)
How it was run: as §1

Work on RERF-LC-KJ yielded a relative viability (Omipalisib + Bortezomib; first compound 0.0003 µM) of 1.1, a relative viability (Omipalisib + Bortezomib; first compound 0.003 µM) of 0.795 and a relative viability (Omipalisib + Bortezomib; first compound 0.03 µM) of 0.664. It also gave a relative viability (Omipalisib + Foretinib; first compound 0.0003 µM) of 0.786, a relative viability (Omipalisib + Foretinib; first compound 0.003 µM) of 0.58 and a relative viability (Omipalisib + Foretinib; first compound 0.03 µM) of 0.594. For the same cell line, the relative viability (Omipalisib + Lapatinib; first compound 0.0003 µM) was 0.773, the relative viability (Omipalisib + Lapatinib; first compound 0.003 µM) was 0.572 and the relative viability (Omipalisib + Lapatinib; first compound 0.03 µM) was 0.632. It also gave a relative viability (Omipalisib + Dasatinib; first compound 0.0003 µM) of 0.757, a relative viability (Omipalisib + Dasatinib; first compound 0.003 µM) of 0.509 and a relative viability (Omipalisib + Dasatinib; first compound 0.03 µM) of 0.407. The relative viability (Omipalisib + Pictilisib; first compound 0.0003 µM) was 0.488, the relative viability (Omipalisib + Pictilisib; first compound 0.003 µM) was 0.463 and the relative viability (Omipalisib + Pictilisib; first compound 0.03 µM) was 0.397. For the same cell line, the relative viability (Omipalisib + OSI-027; first compound 0.0003 µM) was 0.524, the relative viability (Omipalisib + OSI-027; first compound 0.003 µM) was 0.423 and the relative viability (Omipalisib + OSI-027; first compound 0.03 µM) was 0.367.

NCI-H1915 was tested, and the relative viability (Omipalisib + Bortezomib; first compound 0.0003 µM) was 1.02, the relative viability (Omipalisib + Bortezomib; first compound 0.003 µM) was 0.978 and the relative viability (Omipalisib + Bortezomib; first compound 0.03 µM) was 0.97. The relative viability (Omipalisib + Foretinib; first compound 0.0003 µM) was 1.05, the relative viability (Omipalisib + Foretinib; first compound 0.003 µM) was 1.08 and the relative viability (Omipalisib + Foretinib; first compound 0.03 µM) was 0.983. The relative viability (Omipalisib + Lapatinib; first compound 0.0003 µM) was 0.957, the relative viability (Omipalisib + Lapatinib; first compound 0.003 µM) was 0.945 and the relative viability (Omipalisib + Lapatinib; first compound 0.03 µM) was 1. For the same cell line, the relative viability (Omipalisib + Dasatinib; first compound 0.0003 µM) was 0.278, the relative viability (Omipalisib + Dasatinib; first compound 0.003 µM) was 0.257 and the relative viability (Omipalisib + Dasatinib; first compound 0.03 µM) was 0.275. It also gave a relative viability (Omipalisib + Pictilisib; first compound 0.0003 µM) of 1.03, a relative viability (Omipalisib + Pictilisib; first compound 0.003 µM) of 0.866 and a relative viability (Omipalisib + Pictilisib; first compound 0.03 µM) of 0.862. For the same cell line, the relative viability (Omipalisib + OSI-027; first compound 0.0003 µM) was 0.618, the relative viability (Omipalisib + OSI-027; first compound 0.003 µM) was 0.473 and the relative viability (Omipalisib + OSI-027; first compound 0.03 µM) was 0.574.

In the case of NCI-H3122, the relative viability (Omipalisib + Bortezomib; first compound 0.0003 µM) is reported as 1.01, the relative viability (Omipalisib + Bortezomib; first compound 0.003 µM) is reported as 1.04 and the relative viability (Omipalisib + Bortezomib; first compound 0.03 µM) is reported as 0.818. It also gave a relative viability (Omipalisib + Foretinib; first compound 0.0003 µM) of 0.942, a relative viability (Omipalisib + Foretinib; first compound 0.003 µM) of 0.802 and a relative viability (Omipalisib + Foretinib; first compound 0.03 µM) of 0.522. The relative viability (Omipalisib + Lapatinib; first compound 0.0003 µM) was 1.03, the relative viability (Omipalisib + Lapatinib; first compound 0.003 µM) was 1.05 and the relative viability (Omipalisib + Lapatinib; first compound 0.03 µM) was 0.786. The relative viability (Omipalisib + Dasatinib; first compound 0.0003 µM) was 0.641, the relative viability (Omipalisib + Dasatinib; first compound 0.003 µM) was 0.0596 and the relative viability (Omipalisib + Dasatinib; first compound 0.03 µM) was 0.315. The relative viability (Omipalisib + Pictilisib; first compound 0.0003 µM) was 0.538, the relative viability (Omipalisib + Pictilisib; first compound 0.003 µM) was 0.472 and the relative viability (Omipalisib + Pictilisib; first compound 0.03 µM) was 0.475. For the same cell line, the relative viability (Omipalisib + OSI-027; first compound 0.0003 µM) was 0.863, the relative viability (Omipalisib + OSI-027; first compound 0.003 µM) was 0.376 and the relative viability (Omipalisib + OSI-027; first compound 0.03 µM) was 0.216.

NCI-H661 was tested, and the relative viability (Omipalisib + Bortezomib; first compound 0.0003 µM) was 0.69, the relative viability (Omipalisib + Bortezomib; first compound 0.003 µM) was 0.595 and the relative viability (Omipalisib + Bortezomib; first compound 0.03 µM) was 0.314. It also gave a relative viability (Omipalisib + Foretinib; first compound 0.0003 µM) of 1.06, a relative viability (Omipalisib + Foretinib; first compound 0.003 µM) of 0.999 and a relative viability (Omipalisib + Foretinib; first compound 0.03 µM) of 0.783. It also gave a relative viability (Omipalisib + Lapatinib; first compound 0.0003 µM) of 0.366, a relative viability (Omipalisib + Lapatinib; first compound 0.003 µM) of 0.294 and a relative viability (Omipalisib + Lapatinib; first compound 0.03 µM) of 0.196. It also gave a relative viability (Omipalisib + Dasatinib; first compound 0.0003 µM) of 0.822, a relative viability (Omipalisib + Dasatinib; first compound 0.003 µM) of 0.573 and a relative viability (Omipalisib + Dasatinib; first compound 0.03 µM) of 0.312. It also gave a relative viability (Omipalisib + Pictilisib; first compound 0.0003 µM) of 0.567, a relative viability (Omipalisib + Pictilisib; first compound 0.003 µM) of 0.37 and a relative viability (Omipalisib + Pictilisib; first compound 0.03 µM) of 0.365. For the same cell line, the relative viability (Omipalisib + OSI-027; first compound 0.0003 µM) was 0.661, the relative viability (Omipalisib + OSI-027; first compound 0.003 µM) was 0.582 and the relative viability (Omipalisib + OSI-027; first compound 0.03 µM) was 0.344.

With CAL-12T the relative viability (Omipalisib + Bortezomib; first compound 0.0003 µM) was 1.15, the relative viability (Omipalisib + Bortezomib; first compound 0.003 µM) was 1.06 and the relative viability (Omipalisib + Bortezomib; first compound 0.03 µM) was 0.484. The relative viability (Omipalisib + Foretinib; first compound 0.0003 µM) was 1.26, the relative viability (Omipalisib + Foretinib; first compound 0.003 µM) was 1.06 and the relative viability (Omipalisib + Foretinib; first compound 0.03 µM) was 0.684. It also gave a relative viability (Omipalisib + Lapatinib; first compound 0.0003 µM) of 0.787, a relative viability (Omipalisib + Lapatinib; first compound 0.003 µM) of 0.496 and a relative viability (Omipalisib + Lapatinib; first compound 0.03 µM) of 0.475. The relative viability (Omipalisib + Dasatinib; first compound 0.0003 µM) was 0.53, the relative viability (Omipalisib + Dasatinib; first compound 0.003 µM) was 0.241 and the relative viability (Omipalisib + Dasatinib; first compound 0.03 µM) was 0.0952. It also gave a relative viability (Omipalisib + Pictilisib; first compound 0.0003 µM) of 0.579, a relative viability (Omipalisib + Pictilisib; first compound 0.003 µM) of 0.524 and a relative viability (Omipalisib + Pictilisib; first compound 0.03 µM) of 0.385. The relative viability (Omipalisib + OSI-027; first compound 0.0003 µM) was 0.753, the relative viability (Omipalisib + OSI-027; first compound 0.003 µM) was 0.404 and the relative viability (Omipalisib + OSI-027; first compound 0.03 µM) was 0.232.

NCI-H647 showed a relative viability (Omipalisib + Bortezomib; first compound 0.0003 µM) of 1.05, a relative viability (Omipalisib + Bortezomib; first compound 0.003 µM) of 0.739 and a relative viability (Omipalisib + Bortezomib; first compound 0.03 µM) of 0.462. It also gave a relative viability (Omipalisib + Foretinib; first compound 0.0003 µM) of 1.16, a relative viability (Omipalisib + Foretinib; first compound 0.003 µM) of 0.965 and a relative viability (Omipalisib + Foretinib; first compound 0.03 µM) of 0.603. It also gave a relative viability (Omipalisib + Lapatinib; first compound 0.0003 µM) of 0.932, a relative viability (Omipalisib + Lapatinib; first compound 0.003 µM) of 0.782 and a relative viability (Omipalisib + Lapatinib; first compound 0.03 µM) of 0.272. For the same cell line, the relative viability (Omipalisib + Dasatinib; first compound 0.0003 µM) was 0.162, the relative viability (Omipalisib + Dasatinib; first compound 0.003 µM) was 0.0952 and the relative viability (Omipalisib + Dasatinib; first compound 0.03 µM) was 0.0677. The relative viability (Omipalisib + Pictilisib; first compound 0.0003 µM) was 0.462, the relative viability (Omipalisib + Pictilisib; first compound 0.003 µM) was 0.307 and the relative viability (Omipalisib + Pictilisib; first compound 0.03 µM) was 0.386. It also gave a relative viability (Omipalisib + OSI-027; first compound 0.0003 µM) of 0.547, a relative viability (Omipalisib + OSI-027; first compound 0.003 µM) of 0.408 and a relative viability (Omipalisib + OSI-027; first compound 0.03 µM) of 0.264.

For HOP-62, the relative viability (Omipalisib + Bortezomib; first compound 0.0003 µM) was 0.803, the relative viability (Omipalisib + Bortezomib; first compound 0.003 µM) was 0.617 and the relative viability (Omipalisib + Bortezomib; first compound 0.03 µM) was 0.625. For the same cell line, the relative viability (Omipalisib + Foretinib; first compound 0.0003 µM) was 1.09, the relative viability (Omipalisib + Foretinib; first compound 0.003 µM) was 1.1 and the relative viability (Omipalisib + Foretinib; first compound 0.03 µM) was 0.946. It also gave a relative viability (Omipalisib + Lapatinib; first compound 0.0003 µM) of 0.946, a relative viability (Omipalisib + Lapatinib; first compound 0.003 µM) of 0.901 and a relative viability (Omipalisib + Lapatinib; first compound 0.03 µM) of 0.702. For the same cell line, the relative viability (Omipalisib + Dasatinib; first compound 0.0003 µM) was 0.629, the relative viability (Omipalisib + Dasatinib; first compound 0.003 µM) was 0.458 and the relative viability (Omipalisib + Dasatinib; first compound 0.03 µM) was 0.27. The relative viability (Omipalisib + Pictilisib; first compound 0.0003 µM) was 0.745, the relative viability (Omipalisib + Pictilisib; first compound 0.003 µM) was 0.538 and the relative viability (Omipalisib + Pictilisib; first compound 0.03 µM) was 0.595. The relative viability (Omipalisib + OSI-027; first compound 0.0003 µM) was 0.93, the relative viability (Omipalisib + OSI-027; first compound 0.003 µM) was 0.56 and the relative viability (Omipalisib + OSI-027; first compound 0.03 µM) was 0.576.

NCI-H2228 gave a relative viability (Omipalisib + Bortezomib; first compound 0.0003 µM) of 0.905, a relative viability (Omipalisib + Bortezomib; first compound 0.003 µM) of 0.577 and a relative viability (Omipalisib + Bortezomib; first compound 0.03 µM) of 0.404. The relative viability (Omipalisib + Foretinib; first compound 0.0003 µM) was 0.957, the relative viability (Omipalisib + Foretinib; first compound 0.003 µM) was 0.74 and the relative viability (Omipalisib + Foretinib; first compound 0.03 µM) was 0.25. The relative viability (Omipalisib + Lapatinib; first compound 0.0003 µM) was 0.993, the relative viability (Omipalisib + Lapatinib; first compound 0.003 µM) was 0.697 and the relative viability (Omipalisib + Lapatinib; first compound 0.03 µM) was 0.291. It also gave a relative viability (Omipalisib + Dasatinib; first compound 0.0003 µM) of 0.43, a relative viability (Omipalisib + Dasatinib; first compound 0.003 µM) of 0.275 and a relative viability (Omipalisib + Dasatinib; first compound 0.03 µM) of 0.133. It also gave a relative viability (Omipalisib + Pictilisib; first compound 0.0003 µM) of 0.41, a relative viability (Omipalisib + Pictilisib; first compound 0.003 µM) of 0.265 and a relative viability (Omipalisib + Pictilisib; first compound 0.03 µM) of 0.407. The relative viability (Omipalisib + OSI-027; first compound 0.0003 µM) was 0.506, the relative viability (Omipalisib + OSI-027; first compound 0.003 µM) was 0.19 and the relative viability (Omipalisib + OSI-027; first compound 0.03 µM) was 0.139.
